This note sets out measurements from patent publication US6376682B1, “Compound with α-glucosidase inhibiting action and method for producing the same” (Takama System, Ltd., priority 2000, dated 2002).

The test system of assay [1] is blood sugar elevation caused by sucrose loading. Nature of the assay: Inhibiting effect on hyperglycemia in the case of sucrose loading. The format is in vivo, male Wistar rats. Conditions: rats; for Rate of inhibition of blood sugar elevation 30 minutes: po, 30 minutes after sucrose loading. The procedure: The test was oraly administered as an aqueous solution to fasting male Wistar rats (body weight: 130 to 170 g.
Next after 30 minutes, the sucrose was orally administered to the rats.
Then, 30 minutes, after the administered of the sugar, 0.4 ml of blood was taken from the neck artery of each animal with the animal under restraint without anesthesia (during blood collection only). following colling with ice water, the blood serum was separated by centrifuging, and the glucose concentration (blood sugar level) was measured by the glucose oxidase method (Glucose CII Test Wako).
The above-described test was performed for the novel compound SP (product of the present invention) and Acabose(clnventional roduct).

In assay [2] the target is T1, isomaltase originating in the small intestines of rats (Rattus norvegicus, UniProt P23739).
T1 construct: The brush border membrane obtained from the jejunum of male Wistar rats (body weight: 150 to 350 g) was used as a crude enzyme; from tissue; host or cells: jejunal brush border membrane of male Wistar rats
Kind of assay: Inhibiting effect on isomaltase, rat jejunum brush border membrane crude enzyme. Type of assay: biochemical. Conditions: times stronger than Acarbose.
Method: The brush border membrane obtained from the jejunum of male Wistar rats (body weight: 150 to 350 g) was used as a crude enzyme.
The brush border membrane was suspended in a 0.01 M maleic acid buffer solution (pH=6.0), and this suspension was diluted to a concentration at which the substrate was hydrolyzed at the rate of approximately 25 to 50 n/mol/ml/minute.
For maltase, sucrase and isomaltase, 100 μL of various concentrations of the test drug was added to 50 μL of respective 74 mM maltose, sucrose and isomaltose (used as substrates), and the resulting preparations were pre-heated for 2 to 3 minutes at 37° C.
Next, 50 μL of the enzyme solution was added, and a reaction was performed for 30 minutes. The reaction was stopped by adding 800 μL of water, and placing the reaction mixture in a water bath at 92 to 97° C. for 2 minutes.
The amount of glucose produced was measured by the glucose oxidase method (Glucose CII Test Wako).
In the above, the substrates and test drug were both dissolved in a maleic acid buffer solution (pH=6.0) prior to use.

Assay [3] concerns β-glucosidase originating in almonds. Kind of assay: Activity inhibiting effect on β-glucosidase. The format is biochemical. Conditions: substrate p-nitrophenol-β-D-glycopyronoside, pH 5.0. The procedure:
β-glucosidase originating in almonds (manufactured by Sigma Co.) was dissolved in a 0.1 M acetic acid buffer solution (pH=5.0), and this solution was diluted to a concentration at which the substrate was hydrolyzed at the rate of 5 n/mol/ml/minute.
100 μL of the test drug was added to 50 μL of 10 mM p-nitrophenol-β-D-glycopyronoside (manufactured by Sigma Co.) used as a substrate, and this mixture was preheated for 5 minutes at 37° C.
Next, 50 μL of the enzyme solution was added, and a reaction was performed for 15 minutes. The reaction was stopped by adding 200 μL of a 0.2 M sodium carbonate solution.
The amount of p-nitrophenol produced was determined from the absorbance at 400 nm.
The substrate and test drug were both dissolved in a 0.1 M acetic acid buffer solution (pH=5.0) prior to use.

Each structure is given as a SMILES string.

T1 sequence (P23739 whole entry): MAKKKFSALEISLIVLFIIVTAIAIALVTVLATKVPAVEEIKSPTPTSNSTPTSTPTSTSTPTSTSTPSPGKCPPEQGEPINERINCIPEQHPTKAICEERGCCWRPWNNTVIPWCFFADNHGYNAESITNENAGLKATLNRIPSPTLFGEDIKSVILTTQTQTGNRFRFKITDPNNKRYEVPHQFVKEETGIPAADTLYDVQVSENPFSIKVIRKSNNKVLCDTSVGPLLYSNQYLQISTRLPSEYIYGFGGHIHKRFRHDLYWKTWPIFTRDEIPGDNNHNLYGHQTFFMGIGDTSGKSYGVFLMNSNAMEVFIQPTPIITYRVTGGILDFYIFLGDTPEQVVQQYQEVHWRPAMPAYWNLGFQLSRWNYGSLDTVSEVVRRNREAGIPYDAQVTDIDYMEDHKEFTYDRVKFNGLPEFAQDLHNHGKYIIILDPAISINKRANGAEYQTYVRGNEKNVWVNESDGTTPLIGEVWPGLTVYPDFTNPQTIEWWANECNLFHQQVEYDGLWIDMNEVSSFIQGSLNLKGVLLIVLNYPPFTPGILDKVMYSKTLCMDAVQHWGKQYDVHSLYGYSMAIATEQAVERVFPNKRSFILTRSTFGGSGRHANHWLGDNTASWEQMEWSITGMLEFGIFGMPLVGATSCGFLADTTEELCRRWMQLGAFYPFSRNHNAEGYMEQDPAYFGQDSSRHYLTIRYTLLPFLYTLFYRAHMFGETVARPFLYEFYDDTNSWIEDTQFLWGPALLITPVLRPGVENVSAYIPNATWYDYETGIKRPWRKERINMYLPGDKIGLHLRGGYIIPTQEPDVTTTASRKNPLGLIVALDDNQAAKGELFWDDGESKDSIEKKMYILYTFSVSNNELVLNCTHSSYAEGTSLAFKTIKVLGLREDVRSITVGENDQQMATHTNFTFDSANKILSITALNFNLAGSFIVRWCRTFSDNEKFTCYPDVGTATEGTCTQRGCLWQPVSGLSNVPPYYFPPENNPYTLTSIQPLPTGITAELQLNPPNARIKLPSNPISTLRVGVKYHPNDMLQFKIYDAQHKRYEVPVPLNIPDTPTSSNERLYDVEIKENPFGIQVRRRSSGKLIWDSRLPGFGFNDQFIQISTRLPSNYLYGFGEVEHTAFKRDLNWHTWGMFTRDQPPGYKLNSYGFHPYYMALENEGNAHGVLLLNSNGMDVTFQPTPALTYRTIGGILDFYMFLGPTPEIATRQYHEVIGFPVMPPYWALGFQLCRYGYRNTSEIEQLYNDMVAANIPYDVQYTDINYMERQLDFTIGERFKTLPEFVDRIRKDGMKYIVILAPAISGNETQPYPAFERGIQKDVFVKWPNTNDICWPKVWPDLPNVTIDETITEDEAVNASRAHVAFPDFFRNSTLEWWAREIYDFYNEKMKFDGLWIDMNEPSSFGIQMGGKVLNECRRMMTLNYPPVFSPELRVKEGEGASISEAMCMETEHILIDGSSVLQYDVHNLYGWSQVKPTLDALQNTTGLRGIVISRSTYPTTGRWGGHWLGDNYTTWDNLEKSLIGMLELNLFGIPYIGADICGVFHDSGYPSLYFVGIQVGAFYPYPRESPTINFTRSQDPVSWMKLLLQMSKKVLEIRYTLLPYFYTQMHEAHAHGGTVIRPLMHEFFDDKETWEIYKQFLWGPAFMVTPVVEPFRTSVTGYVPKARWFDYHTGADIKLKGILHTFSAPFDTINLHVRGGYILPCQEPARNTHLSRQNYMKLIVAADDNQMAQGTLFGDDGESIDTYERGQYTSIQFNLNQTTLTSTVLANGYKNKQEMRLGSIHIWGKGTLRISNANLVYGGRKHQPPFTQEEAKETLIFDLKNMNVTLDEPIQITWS

In the case of `C[C@H]1O[C@H](O[C@H]2[C@H](O)[C@@H](O)[C@@H](O[C@H]3[C@H](O)[C@@H](O)C(O)O[C@@H]3CO)O[C@@H]2CO)[C@H](O)[C@@H](O)[C@@H]1N[C@H]1C=C(CO)[C@@H](O)[C@H](O)[C@H]1O` (stereo partly drawn) [Acarbose, reference compound], the “Rate of inhibition of blood sugar elevation 30 minutes” value in assay [1] (5 mg/kg) was 33.4 ± 6.2; in assay [1] (10 mg/kg), 48.5 ± 6.9; in assay [1] (25 mg/kg), 73.8 ± 5.2.

`O=S(=O)([O-])OC(CO)C(O)C[S+]1CC(O)C(O)C1CO` (stereo not drawn) [SP]: the “Inhibitory effect against isomaltose relative to Acarbose” value in assay [2] is listed as “more than 200 times”. In addition, the “Activity inhibiting effect on β-glucosidase” value in assay [3] was “no activity inhibiting effect”. Further, the “Rate of inhibition of blood sugar elevation 30 minutes” value in assay [1] (5 mg/kg) was 40.5 ± 2.3; in assay [1] (10 mg/kg), 62.1 ± 3.8; in assay [1] (25 mg/kg), 89.1 ± 3.5. For the same compound, the “Effect in inhibiting the elevation of blood sugar levels compared with Acarbose” value in assay [1] (sucrose loading) was “stronger effect in inhibiting the elevation of blood sugar levels than Acarbose”.
